Assay results published in patent publication US11613531B2, “Inhibitors of RHO associated coiled-coil containing protein kinase” (Kadmon Corporation, LLC, priority 2017, dated 2023).

Test system: Bleomycin induced lung fibrosis in mice
Experiment: Therapeutic bleomycin induced lung fibrosis model
Format: in vivo
Description: FIG. 10a. ROCK inhibitor is therapeutically active in a mouse model of pulmonary fibrosis. Representative images of lung sections stained with Masson's trichrome to visualized fibrosis in the lungs of mice following therapeutic treatment with ROCK inhibitor in the bleomycin-induced lung injury model.
FIG. 10b. Quantitation of the decrease in the fibrosis index in the histopathological analysis of the images from ROCK inhibitor and vehicle treated mice in the bleomycin-induced lung injury model.
FIG. 10c. ROCK target engagement analysis in the lung tissue from the bleomycin-induced pulmonary fibrosis model.
Therapeutic Efficacy of Compounds in Bleomycin Induced Lung Fibrosis in Mice
Male C57B/L6 mice were housed for acclimation for no less than 7 days. After acclimation period, animals were randomly assigned to treatment groups. On day 0, mice were anesthetized with 5% isoflurane by inhalation for 10-15 mins and then suspended by their front teeth on a wire attached to a fixed animal operating plate. 50 μL of saline or bleomycin solution was administered via intratracheal instillation. […]
The activity of ROCK inhibitors in attenuating pulmonary fibrosis in a therapeutic dosing setting was assessed in a bleomycin-induced model, following intratracheal bleomycin installation to induce lung tissue damage and consequent fibrosis of the lung. […]
The improvement in the overall lung fibrosis was quantitated for each animal in the control and treatment groups. […]
In addition to the determination of the therapeutic activity of ROCK inhibition in the pulmonary fibrosis model, target engagement and the extent of ROCK inhibition in the lung of drug treated animals were also determined. Protein extracts were prepared from the snap frozen lung samples and separated on SDS-PAGE and analyzed by Western blotting. ROCK kinase direct target, phosphorylated myosin-binding subunit of myosin phosphatase (MYPT, pT853) and a ROCK pathway regulated protein CCN1 expression levels were detected. […] Western blot results were quantitated by the Image J densitometry program. […]

[1] = bleomycin treated mouse lungs, western blot

Clc1cnc(N2C3CCC2CNC3)nc1Nc1ccc2[nH]ncc2c1 [Example 192, N-(2-(3,8-diazabicyclo[3.2.1]octan-8-yl)-5-chloropyrimidin-4-yl)-1H-indazol-5-amine]
CCN1 total protein levels in lung [1]: reduction | phosphorylated MYPT (pT853) levels in lung [1]: reduction | collagen amounts in the lungs (mice, therapeutic dosing from day 7, Masson's trichrome-stained sections): significantly lower
